Test results from PubChem BioAssay (NCI).
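48-hour exposure; five concentrations; linearly interpolated endpoints. GI50 marks 50% less growth. TGI is the concentration that stops growth completely.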

Key:
Assay in all cases: NCI anticancer screen, dose series, 48 h
[1] = system: 786-0 renal
[2] = system: A498 renal
[3] = system: A549 NSCLC
[4] = system: ACHN renal
[5] = system: BT-549 breast
[6] = system: CAKI-1 renal
[7] = system: CCRF-CEM leukemia
[8] = system: COLO 205 colon
[9] = system: DU-145 prostate
[10] = system: EKVX NSCLC
[11] = system: HCC-2998 colon
[12] = system: HCT-116 colon
[13] = system: HCT-15 colon
[14] = system: HL-60(TB) leukemia
[15] = system: HOP-62 NSCLC
[16] = system: HOP-92 NSCLC
[17] = system: HS 578T breast
[18] = system: HT29 colon
[19] = system: IGROV1 ovarian
[20] = system: K-562 leukemia
[21] = system: KM12 colon
[22] = system: LOX IMVI melanoma
[23] = system: M14 melanoma
[24] = system: MALME-3M melanoma
[25] = system: MCF7 breast
[26] = system: MDA-MB-231 breast
[27] = system: MDA-MB-435
[28] = system: MOLT-4 leukemia
[29] = system: NCI-H226 lung
[30] = system: NCI-H23 lung
[31] = system: NCI-H460 lung
[32] = system: NCI-H522 lung
[33] = system: NCI/ADR-RES ovarian
[34] = system: OVCAR-3 ovarian
[35] = system: OVCAR-4 ovarian
[36] = system: OVCAR-5 ovarian
[37] = system: OVCAR-8 ovarian
[38] = system: PC-3 prostate
[39] = system: RPMI-8226 leukemia
[40] = system: RXF 393 renal
[41] = system: SF-268 CNS
[42] = system: SF-295 CNS
[43] = system: SF-539 CNS
[44] = system: SK-MEL-2 melanoma
[45] = system: SK-MEL-28 melanoma
[46] = system: SK-MEL-5 melanoma
[47] = system: SK-OV-3 ovarian
[48] = system: SN12C renal
[49] = system: SNB-19 CNS
[50] = system: SNB-75 CNS
[51] = system: SR leukemia
[52] = system: SW-620 colon
[53] = system: T-47D breast
[54] = system: TK-10 renal
[55] = system: U251 CNS
[56] = system: UACC-257 melanoma
[57] = system: UACC-62 melanoma
[58] = system: UO-31 renal

Compound: CS(=O)(=O)CCNCc1ccc(-c2ccc3ncnc(Nc4ccc(OCc5cccc(C(F)(F)F)c5)cc4)c3c2)o1
- GI50 [1]: 4.61 µM
- TGI [1]: 8.85 µM
- GI50 [2]: 4.38 µM
- TGI [2]: 13.1 µM
- GI50 [3]: 6.49 µM
- TGI [3]: > 25 µM
- GI50 [4]: 7.38 µM
- TGI [4]: > 25 µM
- GI50 [5]: 9.57 µM
- TGI [5]: > 21.8 µM
- GI50 [6]: 5.57 µM
- TGI [6]: > 19.8 µM
- GI50 [7]: 6.14 µM
- TGI [7]: > 25 µM
- GI50 [8]: 6.83 µM
- TGI [8]: > 15.5 µM
- GI50 [9]: 6.98 µM
- TGI [9]: > 22.6 µM
- GI50 [10]: 6.03 µM
- TGI [10]: > 23.3 µM
- GI50 [11]: 4.46 µM
- TGI [11]: 8.26 µM
- GI50 [12]: 5.07 µM
- TGI [12]: 10 µM
- GI50 [13]: 4.71 µM
- TGI [13]: 10.6 µM
- GI50 [14]: 4.96 µM
- TGI [14]: 10.9 µM
- GI50 [15]: 6.53 µM
- TGI [15]: 16.6 µM
- GI50 [16]: 2.6 µM
- TGI [16]: 7.81 µM
- GI50 [17]: 7.02 µM
- TGI [17]: > 19.4 µM
- GI50 [18]: 4.22 µM
- TGI [18]: 8.32 µM
- GI50 [19]: 5.46 µM
- TGI [19]: > 17.5 µM
- GI50 [20]: 3.18 µM
- TGI [20]: 15 µM
- GI50 [21]: 5.74 µM
- TGI [21]: 13.2 µM
- GI50 [22]: 4.53 µM
- TGI [22]: 9.32 µM
- GI50 [23]: 6.11 µM
- TGI [23]: 13.9 µM
- GI50 [24]: 5.28 µM
- TGI [24]: 10.5 µM
- GI50 [25]: 6.38 µM
- TGI [25]: > 15 µM
- GI50 [26]: 6.34 µM
- TGI [26]: 14.1 µM
- GI50 [27]: 4.71 µM
- TGI [27]: 10.7 µM
- GI50 [28]: 4.87 µM
- TGI [28]: > 20.9 µM
- GI50 [29]: > 16.3 µM
- TGI [29]: > 25 µM
- GI50 [30]: 5.93 µM
- TGI [30]: 15.7 µM
- GI50 [31]: 5.31 µM
- TGI [31]: 11.8 µM
- GI50 [32]: 4.8 µM
- TGI [32]: 8.91 µM
- GI50 [33]: 7.19 µM
- TGI [33]: > 25 µM
- GI50 [34]: 5.15 µM
- TGI [34]: 11.2 µM
- GI50 [35]: 8.68 µM
- TGI [35]: > 25 µM
- GI50 [36]: 9.03 µM
- TGI [36]: 24.3 µM
- GI50 [37]: 6.91 µM
- TGI [37]: > 21.9 µM
- GI50 [38]: 5.63 µM
- TGI [38]: 19.9 µM
- GI50 [39]: 5.7 µM
- TGI [39]: 16.5 µM
- GI50 [40]: 5.28 µM
- TGI [40]: 13.6 µM
- GI50 [41]: 4.54 µM
- TGI [41]: 9.82 µM
- GI50 [42]: 5.08 µM
- TGI [42]: 11.3 µM
- GI50 [43]: 4.66 µM
- TGI [43]: 9.75 µM
- GI50 [44]: 5.46 µM
- TGI [44]: 9.96 µM
- GI50 [45]: 4.29 µM
- TGI [45]: 8.23 µM
- GI50 [46]: 6.05 µM
- TGI [46]: > 13.5 µM
- GI50 [47]: 9.25 µM
- TGI [47]: > 25 µM
- GI50 [48]: 7.81 µM
- TGI [48]: > 19.1 µM
- GI50 [49]: 11.3 µM
- TGI [49]: > 25 µM
- GI50 [50]: 8.21 µM
- TGI [50]: > 21.1 µM
- GI50 [51]: 4.49 µM
- TGI [51]: 16.7 µM
- GI50 [52]: 5.2 µM
- TGI [52]: 10.1 µM
- GI50 [53]: 7.6 µM
- TGI [53]: > 23 µM
- GI50 [54]: 3.17 µM
- TGI [54]: 11.1 µM
- GI50 [55]: 4.22 µM
- TGI [55]: 9.51 µM
- GI50 [56]: 3.79 µM
- TGI [56]: 7.49 µM
- GI50 [57]: 5.11 µM
- TGI [57]: 9.66 µM
- GI50 [58]: 4.34 µM
- TGI [58]: 10.2 µM
